Values quoted from earlier work as cited in US20180228757A1, “EDIBLE PARTICLES COMPRISING A POLYSACCHARIDE AND A LIPID” (PERORA GMBH, priority 2015, published 2018).

Conditions: infusion into the duodenum by means of a feeding tube

| SMILES | satiety signalling |
| --- | --- |
| CCCCCCCCCCCC(=O)O [lauric acid] | strong satiety signalling |
| CCCCCCCC/C=C\CCCCCCCC(=O)O [oleic acid] | strong satiety signalling |
